Assay results: patent US20240382438A1, “Calcium Channel Blockers and Methods Thereof” (University of Maryland, Eastern Shore, priority 2023, published 2024)
“Also recorded” adds a separate entry of the source. Values belong to the molecule of their own block, whether it stands above or below them.

How the values were obtained:
[1] = system: differentiated ND7/23 cells; assay: Intracellular calcium signals in differentiated ND7/23 cells stimulated with KCl or ionomycin; assay type: cell-based, mouse neuroblastoma and rat dorsal root ganglion cells; details: 10 μM, control cells
Experimental: FIGS. 14A-C. Effect of RHB121 on the intracellular calcium signals generated in differentiated ND7/23 cells following stimulation with 30 mM extracellular K+ ions or the calcium ionophore ionomycin (10 μM). FIG. 14A. […] FIG. 14B. […] FIG. 14C. Relative changes in the intracellular calcium signal generated in differentiated ND7/23 cells by 30 mM KCl or Ionomycin (10 μM) in control or RHB121-treated cells. Control groups were arbitrarily assigned a 100% intracellular calcium signal.
To assess the effect of RHB121 on intracellular calcium signals, differentiated ND7/23 cells with a high potassium concentration (30 mM KCl) were simulated. The effect of the calcium ionophore Ionomycin, which also can increase intracellular calcium by a different mechanism, independently of T-type Ca^2+ channel activation, was also tested. Stimulation of differentiated ND7/23 with 30 mM KCl external solution caused a small increase in the intracellular calcium signal (FIG. 14A).

human Cav3.2 = biological target: T1, human Cav3.2 (Homo sapiens, UniProt O95180); assay: Whole-cell patch clamp of T-type Ca2+ currents in Cav3.2-stable transfected HEK 293 cells; assay type: cell-based; details: for Effect on T-type Ca2+ current density: vs non-treated cells
T1 construct: host or cells: HEK 293
T1 sequence (O95180 whole entry): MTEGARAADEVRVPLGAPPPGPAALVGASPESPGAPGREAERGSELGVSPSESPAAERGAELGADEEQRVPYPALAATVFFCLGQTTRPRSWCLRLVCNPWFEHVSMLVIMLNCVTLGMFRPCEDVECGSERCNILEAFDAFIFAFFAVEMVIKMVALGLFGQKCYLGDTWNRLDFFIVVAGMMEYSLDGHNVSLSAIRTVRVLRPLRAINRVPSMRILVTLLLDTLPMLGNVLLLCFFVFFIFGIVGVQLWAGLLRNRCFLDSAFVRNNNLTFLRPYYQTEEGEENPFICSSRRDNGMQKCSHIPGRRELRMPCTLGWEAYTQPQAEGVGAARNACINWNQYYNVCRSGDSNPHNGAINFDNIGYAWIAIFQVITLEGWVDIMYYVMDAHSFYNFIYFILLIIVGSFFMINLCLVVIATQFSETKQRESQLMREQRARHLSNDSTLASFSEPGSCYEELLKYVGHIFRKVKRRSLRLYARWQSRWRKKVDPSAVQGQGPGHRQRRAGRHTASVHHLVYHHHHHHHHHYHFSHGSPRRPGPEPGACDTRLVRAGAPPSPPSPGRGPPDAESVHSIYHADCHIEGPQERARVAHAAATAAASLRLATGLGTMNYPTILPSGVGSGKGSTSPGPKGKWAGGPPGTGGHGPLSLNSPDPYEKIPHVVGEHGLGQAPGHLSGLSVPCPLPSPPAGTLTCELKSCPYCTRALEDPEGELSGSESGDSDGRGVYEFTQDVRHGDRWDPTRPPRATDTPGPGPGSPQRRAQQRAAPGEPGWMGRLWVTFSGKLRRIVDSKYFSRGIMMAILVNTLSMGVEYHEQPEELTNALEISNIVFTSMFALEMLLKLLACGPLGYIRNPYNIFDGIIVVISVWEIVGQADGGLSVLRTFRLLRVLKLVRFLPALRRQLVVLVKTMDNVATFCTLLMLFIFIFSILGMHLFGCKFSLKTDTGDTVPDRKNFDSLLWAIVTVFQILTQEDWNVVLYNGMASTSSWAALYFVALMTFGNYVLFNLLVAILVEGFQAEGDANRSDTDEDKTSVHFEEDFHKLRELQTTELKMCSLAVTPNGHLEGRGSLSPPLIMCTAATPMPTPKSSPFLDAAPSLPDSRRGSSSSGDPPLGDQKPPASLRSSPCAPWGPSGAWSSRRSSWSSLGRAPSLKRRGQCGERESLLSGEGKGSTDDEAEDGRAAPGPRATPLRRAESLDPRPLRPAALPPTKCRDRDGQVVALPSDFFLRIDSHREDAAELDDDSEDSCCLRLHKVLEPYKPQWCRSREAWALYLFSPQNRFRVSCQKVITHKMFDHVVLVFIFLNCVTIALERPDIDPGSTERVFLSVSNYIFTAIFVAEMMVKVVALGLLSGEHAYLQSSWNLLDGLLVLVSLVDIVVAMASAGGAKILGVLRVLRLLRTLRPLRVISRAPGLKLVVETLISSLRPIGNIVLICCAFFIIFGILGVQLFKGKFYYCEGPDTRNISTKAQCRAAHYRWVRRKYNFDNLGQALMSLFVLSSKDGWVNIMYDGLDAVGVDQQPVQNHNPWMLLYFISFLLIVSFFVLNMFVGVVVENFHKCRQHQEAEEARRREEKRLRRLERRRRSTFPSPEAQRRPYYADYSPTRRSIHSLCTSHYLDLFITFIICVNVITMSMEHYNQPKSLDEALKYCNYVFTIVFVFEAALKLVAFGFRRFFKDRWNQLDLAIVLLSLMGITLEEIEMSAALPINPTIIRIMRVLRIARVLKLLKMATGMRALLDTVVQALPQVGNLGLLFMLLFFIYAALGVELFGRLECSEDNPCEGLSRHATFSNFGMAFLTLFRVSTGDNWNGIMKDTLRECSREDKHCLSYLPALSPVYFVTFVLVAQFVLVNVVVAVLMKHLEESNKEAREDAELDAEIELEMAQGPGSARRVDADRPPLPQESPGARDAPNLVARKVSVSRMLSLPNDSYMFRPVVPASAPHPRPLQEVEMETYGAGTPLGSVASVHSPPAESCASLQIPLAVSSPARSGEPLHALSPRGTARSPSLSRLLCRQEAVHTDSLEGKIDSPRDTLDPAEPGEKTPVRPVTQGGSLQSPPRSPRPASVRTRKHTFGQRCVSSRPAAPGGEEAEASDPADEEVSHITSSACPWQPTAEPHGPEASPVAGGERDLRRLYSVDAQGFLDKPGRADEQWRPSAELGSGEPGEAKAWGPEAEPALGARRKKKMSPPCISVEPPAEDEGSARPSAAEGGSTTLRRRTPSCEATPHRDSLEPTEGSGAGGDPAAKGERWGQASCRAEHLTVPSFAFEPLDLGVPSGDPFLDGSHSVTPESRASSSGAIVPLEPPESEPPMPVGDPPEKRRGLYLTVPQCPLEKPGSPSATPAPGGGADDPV
Experimental: Certain exemplary embodiments have undergone target identification studies to discover a better officious T-type calcium blocker. The fourteen trifluoromethylated N-benzamide enaminone compounds were synthesized, purified, and structure confirmed using gas chromatography/mass spectroscopy, nuclear magnetic resonance, and elemental analysis. Preliminary in vitro whole cell patch clamp experiments were performed to assess the inhibitory effects of several target analogs on voltage-activated calcium currents in human embryonic kidney (HEK-293) cells. Cav3.2 transfected HEK 293 cells were treated with 50 μM of test compounds and compared to the control group (none pretreated HEK 293 cells).
(§1) ND7/23 cells are derived from the fusion of mouse neuroblastoma and rat dorsal root ganglion cells, which generates a more homogeneous sensory neuron-like cell population. ND7/23 cells were purchased from Sigma-Aldrich (RRID:CVCL_4259). Culture and differentiation of ND7/23 cells was performed as previously described. Briefly, ND7/23 cells were cultured in DMEM/F12 culture media (Millipore, Cat. #DF-041-B), supplemented with 0.5% fetal bovine serum (Invitrogen, Cat. #10437010), db-cAMP (1 mM, Sigma-Aldrich, Cat. #D0627), and nerve growth factor (NGF, 50 ng/mL, Sigma-Aldrich, Ca. #N2513). To remove any proliferating cells, cultures were treated with uridine (20 μM, Sigma-Aldrich, Cat. #U3003) and fluorodeoxyuridine (20 μM, Sigma-Aldrich, Cat. #F0503). Cells were maintained in differentiation media without uridine and fluorodeoxyuridin after induction of differentiation. ND7/23 cells were maintained in differentiation media for ≤6 days. HEK 293 cells that were stabled transfected with the human Cav3.2 and Cav3.3 channel subunits were a gift of Dr. E. Perez-Reyes (University of Virginia). Cav3.2 (or Cav3.3)-stabled transfected HEK 293 cells were culture in DMEM/F12 culture media, supplemented with 5% fetal bovine serum, 50 U/mL penicillin and 50 μg/mL streptomycin. ND7/23 and HEK 293 cells were grown in an incubator at 37° C. in the presence of 5% CO2/95% air humidified atmosphere. Cells passaged less than 20 times were used in this work. Cells were grown in poly-D-lysine-coated glass coverslips for electrophysiological recordings.
Whole cell recordings were performed as previously described. A Nikon Eclipse Ti inverted microscope equipped with Hoffman optics and epifluorescence filters was used to visualize individual cells. Recordings were performed at room temperature (22-24° C.) using glass electrodes made from thin wall borosilicate glass (3-5 MΩ). For electrophysiological recordings of inward Ca^2+ currents, outward K^+ currents were eliminated by equimolar substitution of K^+ with Cs^+ in the pipette solution, whereas inward Na^+ currents were eliminated by the use of TEA ions in the external solution, which are unable to go through voltage-gated Na^+ channels. The pipette solution consisted of (in mM) CsCl (120), MgCl2(2), HEPES (10), EGTA (10), ATP (1), and GTP (0.1), pH 7.4 with CsOH. The composition of the normal external saline used for measurements of Ca^2+ currents was (in mM): tetraethylammonium chloride (TEACl, 145), CaCl2 (10), MgCl2(1), HEPES (10), and glucose (5), pH 7.4 adjusted with CsOH. Ca^2+ currents were generated by applying a 200-500 ms-depolarizing step to various potentials from a holding potential of −100 mV. The external solution used to measure Na^+ currents contained (in mM) NaCl (145), KCl (5.3), CaCl2 (0.5), MgCl2 (5.7), HEPES (13), and glucose (5), pH 7.4 adjusted with KOH. The composition of the CsCl-pipette solution used to record Na^+ currents was the same describe above. Na^+ currents were generated by applying a 20 ms-depolarizing step to various potentials from a holding potential of −100 mV. To assess drug-evoked changes on specific ionic conductances, current amplitudes were expressed as current densities as previously reported. […]

T-type Ca^2+ channels = assay: Whole-cell recording of T-type Ca2+ currents in differentiated ND7/23 cells; assay type: cell-based, mouse neuroblastoma and rat dorsal root ganglion cells; details: 50 μM, differentiated ND7/23 cells, vs non-treated cells
Experimental: as §1
Whole cell recordings were performed as previously described. A Nikon Eclipse Ti inverted microscope equipped with Hoffman optics and epifluorescence filters was used to visualize individual cells. Recordings were performed at room temperature (22-24° C.) using glass electrodes made from thin wall borosilicate glass (3-5 MΩ). For electrophysiological recordings of inward Ca^2+ currents, outward K^+ currents were eliminated by equimolar substitution of K^+ with Cs^+ in the pipette solution, whereas inward Na^+ currents were eliminated by the use of TEA ions in the external solution, which are unable to go through voltage-gated Na^+ channels. The pipette solution consisted of (in mM) CsCl (120), MgCl2(2), HEPES (10), EGTA (10), ATP (1), and GTP (0.1), pH 7.4 with CsOH. The composition of the normal external saline used for measurements of Ca^2+ currents was (in mM): tetraethylammonium chloride (TEACl, 145), CaCl2 (10), MgCl2(1), HEPES (10), and glucose (5), pH 7.4 adjusted with CsOH. Ca^2+ currents were generated by applying a 200-500 ms-depolarizing step to various potentials from a holding potential of −100 mV. The external solution used to measure Na^+ currents contained (in mM) NaCl (145), KCl (5.3), CaCl2 (0.5), MgCl2 (5.7), HEPES (13), and glucose (5), pH 7.4 adjusted with KOH. The composition of the CsCl-pipette solution used to record Na^+ currents was the same describe above. Na^+ currents were generated by applying a 20 ms-depolarizing step to various potentials from a holding potential of −100 mV. To assess drug-evoked changes on specific ionic conductances, current amplitudes were expressed as current densities as previously reported. To assess current densities, cell size was normalized by dividing current amplitudes by cell capacitance. Cell capacitance was determined by integrating the transient current evoked by a 10-mV voltage step from a holding potential of −60 mV.
A MULTICLAMP 700A amplifier and PCLAMP software (Axon Instruments) was used to deliver voltage commands and to perform data acquisition and analysis. Pipette offset, whole cell capacitance, and series resistance were compensated automatically with the MultiClamp 700B Commander. Only cells with stable seals and series resistance (≤10 MΩ) were analyzed. Sampling rates were between 5 and 10 kHz. Leak currents were subtracted online using a P/4 protocol. […]

Effect on T-type Ca2+ current density (human Cav3.2; 50 μM, HEK 293-Cav3.2 cells): No inhibitory effect
SMILES: Cc1cc(C)cc(C(=O)NC2=CC(=O)CC(C)C2)c1 (centres unmarked) [RHB59, 3,5-dimethyl-N-(5-methyl-3-oxocyclohex-1-en-1-yl)benzamide]

Effect on T-type Ca2+ current density (human Cav3.2; 50 μM, HEK 293-Cav3.2 cells): No inhibitory effect
SMILES: O=C1C=C(NC(=O)c2cccc(C(F)(F)F)c2F)CC(C(F)(F)F)C1 (centres unmarked) [RHB103]

inhibition at 50 µM (human Cav3.2; HEK293, 50 μM, Cav3.2 transfected HEK 293 cells, read-out: Inhibition of calcium currents on T-type calcium channels): 90%
SMILES: O=C1C=C(NC(=O)c2cc(C(F)(F)F)cc(C(F)(F)F)c2)CC(C(F)(F)F)C1 (centres unmarked) [RHB-77, N-(3-oxo-5-(trifluoromethyl)cyclohex-1-en-1-yl)-3,5-bis(trifluoromethyl)benzamide]
Concentration dependence of the inhibition of T-type Ca2+ currents (human Cav3.2; HEK 293-Cav3.2 cells): significant inhibition of T-type calcium currents in a concentration-dependent manner

Continued, molecule first:

SMILES: C[C@H](CCC(=O)O)C[C@H](C)C[C@H](C)C(=O)/C=C(\O)[C@H](C)C[C@H](C)C/C=C/[C@@H](C)[C@@H](O)[C@@H](C)[C@@H](O)C[C@@H]1CC[C@@](C)([C@H]2CC[C@@](C)([C@@H](C)O)O2)O1 [Ionomycin, reference compound]
Change in intracellular calcium signal on stimulation [1]: significant increase

SMILES: O=C1C=C(NC(=O)c2cc(F)cc(F)c2)CC(C(F)(F)F)C1 (centres unmarked) [RHB107]
Effect on whole cell capacitance (human Cav3.2; 50 μM, HEK 293-Cav3.2 cells): no significant changes; also recorded: no effect on cell capacitance

SMILES: CC1CC(=O)C=C(NC(=O)c2ccc(C(F)(F)F)cc2)C1 (centres unmarked) [THA40, N-(5-methyl-3-oxocyclohex-1-en-1-yl)-4-(trifluoromethyl) benzamide]
Effect on T-type Ca2+ current density (T-type Ca^2+ channels): None of the tested compounds has any effect | Effect on T-type Ca2+ current density (T-type Ca^2+ channels; listed as TTA40): no effect on Ca^2+ current densities
